Where a name gives a salt, the structure may show the parent alone.
Key:
PC-3 Prostate [1] = test: In vitro cell proliferation assay (3H-Thymidine uptake), PC-3; format: cell-based; details: Homo sapiens, 72 hours
Protocol: (§1) In Vitro Cell Proliferation and Cytotoxicity Assays:
(§2) Exponentially growing cultures of ten human cancerous cell lines (HL-60 Promyelocytic Leukemia, PC-3 Prostate, H-460 Lung, MDA-MB-231 Breast, MCF-7 Breast, HeLa Cervix, Colo-205 Colon, H9 Lymphoma (T Cells), U-937 Histiocytic Lymphoma (monocytes) and CaCO-2 Colon) obtained from NCCS, Pune, India were used. The in vitro cell proliferation (NCI, USA protocol) and cytotoxicity assays were carried out using standard procedures viz. ^3H-Thymidine uptake and MTS assay, respectively (For ^3H-Thymidine uptake: Cell Biology, A Laboratory Handbook, 1998, Vol 1 Ed Julio E. Celis, and For MTS assay: Promega Protocol, USA, 2000). In the ^3H-Thymidine uptake assay, cells were harvested after 72 hours onto GF/B unifilter plates (Packard, USA) using a Packard Filtermate Universal harvester and the plates were counted on a Packard TopCount 96-well liquid scintillation counter. The concentration of compound at which 50% of proliferative activity was inhibited (IC50) and the degree of toxicity of compound were calculated for representative compounds and their pharmaceutically acceptable salts described in the Examples.

HeLa Cervix [2] = test: Cytotoxicity assay (MTS), HeLa; format: cell-based, human
Protocol: as §1, §2

[3] = tested on: U-937 Histiocytic lymphoma (monocytes); test: Cytotoxicity assay (MTS), U-937; format: cell-based, human
Protocol: as §1, §2

MCF-7 Breast [4] = test: Cytotoxicity assay (MTS), MCF-7; format: cell-based, human
Protocol: as §1, §2

[5] = tested on: U-937 Histiocytic lymphoma (monocytes); test: In vitro cell proliferation assay (3H-Thymidine uptake), U-937; format: cell-based; details: Homo sapiens, 72 hours
Protocol: as §1, §2

PC-3 Prostate [6] = test: Cytotoxicity assay (MTS), PC-3; format: cell-based, human
Protocol: as §1, §2

H460 Lung [7] = test: In vitro cell proliferation assay (3H-Thymidine uptake), H460; format: cell-based; details: Homo sapiens, NCI-H460, 72 hours
Protocol: as §1, §2

H460 Lung [8] = test: Cytotoxicity assay (MTS), H460; format: cell-based, human
Protocol: as §1, §2

HeLa Cervix [9] = test: In vitro cell proliferation assay (3H-Thymidine uptake), HeLa; format: cell-based; details: Homo sapiens, 72 hours
Protocol: as §1, §2

MCF-7 Breast [10] = test: In vitro cell proliferation assay (3H-Thymidine uptake), MCF-7; format: cell-based; details: Homo sapiens, MCF7, 72 hours
Protocol: as §1, §2

MDAMB-231 Breast [11] = test: In vitro cell proliferation assay (3H-Thymidine uptake), MDA-MB-231; format: cell-based; details: Homo sapiens, 72 hours
Protocol: as §1, §2

MDAMB-231 Breast [12] = test: Cytotoxicity assay (MTS), MDA-MB-231; format: cell-based, human
Protocol: as §1, §2

human Cdk-4/D1 = biological target: T1, human Cdk-4/D1 (Homo sapiens, UniProt P11802); test: Cdk4/Cyclin D1 kinase assay; format: biochemical; details: for IC50: phosphorylation of GST-Rb, 32P-ATP filter plate, 30 min at 30° C.; for Ratio of IC50 Cdk2/E:Cdk4/D1: selectivity, Cdk2/E IC50 over Cdk4/D1 IC50
T1 construct: made in house; host or cells: Sf9 insect cells (baculovirus)
Description: (§3) Cdk4/Cyclin D1 Kinase Assay and Cdk2/Cyclin E Kinase Assay
(§4) The assays measure phosphorylation of retinoblastoma protein (Rb) by Cdk4 or Cdk2 upon activation by cyclin D1 or cyclin E, respectively, through the transfer of (γ^32P)-phosphate from γ^32P-ATP in a 96-well filter plate assay.
(§5) Cdk4 or Cdk2 was co-expressed with cyclin D1 or cyclin E, respectively, by a baculovirus expression system in insect cells. For this, 1×10^7 Sf9 cells were coinfected with baculoviruses containing human Cdk-4 or 2 and cyclin D1 or E genes and after 72 hours cells were lysed in 500 μl of a lysis buffer (50 mM HEPES (pH 7.5), 10 mM MgCl2, 1 mM DTT, 5 μg/ml of aprotinin, 5 μg/ml of leupeptin, 0.1 mM NaF, 0.2 mM phenylmethylsulfonyl fluoride (PMSF), and sodium orthovanadate). Centrifuged lysate was purified on a GST-sepharose column. Purity of the proteins was checked by SDS-PAGE followed by western blots using specific antibodies (Santacruz Biotec, USA) to Cdk4 or Cdk2.
GST-retinoblastoma (Rb) (aa 776-928) fusion protein is expressed in the bacteria E. coli and purified by GSH-Sepharose affinity chromatography. The GST-Rb bound to these beads served as the substrate in the assay.
(§6) Quantitation was by scintillation detection of (^32P)-GST-Rb in 96-well filter plates using Top Count scintillation 96-well counter (Packard, USA).
The Cdk 4 or Cdk 2 enzyme assay was run in 96-well format using Millipore Multiscreen filtration plates. All assay steps took place in a single filter plate (Unifilter plates, Packard, USA). The filtration wells were pre-wet with kinase buffer (100 μl/well) and the solution was then removed by the application of vacuum, with the filter plate on a vacuum manifold and the vacuum on. 50 μl of GST-Rb bound to GSH-Sepharose beads in kinase buffer (0.5 μg GST-Rb/50 μl) was added to each well and vacuum was applied to removed the buffer. A further 25 μl of a reaction mix containing ATP (cold+hot) and phosphatase inhibitors diluted in kinase buffer were added to each well, followed by the addition of test compound (4× final concentration in kinase buffer) or kinase buffer (control) in an additional 25 μl volume. Finally 50 μl (100 ng) of human Cdk-4/D1 or Cdk-2/E enzyme in kinase buffer was added to each well to initiate the reaction. The reaction was incubated for 30 min at 30° C. After the reaction was complete, vacuum was applied and the plate was washed with the wash buffer (TNEN buffer) three times. The filter plate was air-dried and placed in a Multiscreen adapter plate. To each well, 30 μl Packard Microscint-O cocktail was added and the plate was covered with a Top-Seal A film. The plate was counted in a Packard Top Count Scintillation Counter for 10 min. […]

human Cdk-2/E = biological target: T2, human Cdk-2/E (Homo sapiens, UniProt P24941); test: Cdk2/Cyclin E kinase assay; format: biochemical; details: phosphorylation of GST-Rb, 32P-ATP filter plate, 30 min at 30° C.
T2 construct: made in house; host or cells: Sf9 insect cells (baculovirus)
Description: as §3, §4
as §5, with “Cdk2. […]” for “Cdk2.”
as §6
The Cdk 4 or Cdk 2 enzyme assay was run in 96-well format using Millipore Multiscreen filtration plates. […] The plate was counted in a Packard Top Count Scintillation Counter for 10 min. […]

T1 sequence (P11802 whole entry): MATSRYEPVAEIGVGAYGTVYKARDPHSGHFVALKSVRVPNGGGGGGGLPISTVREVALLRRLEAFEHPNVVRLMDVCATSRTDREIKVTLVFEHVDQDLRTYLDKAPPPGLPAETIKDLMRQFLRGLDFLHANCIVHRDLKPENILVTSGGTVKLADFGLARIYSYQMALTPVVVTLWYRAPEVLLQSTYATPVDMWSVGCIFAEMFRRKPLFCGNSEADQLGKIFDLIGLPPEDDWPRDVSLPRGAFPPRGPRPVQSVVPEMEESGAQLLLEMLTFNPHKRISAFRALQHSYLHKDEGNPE
T1 sequence (P24385 whole entry partner): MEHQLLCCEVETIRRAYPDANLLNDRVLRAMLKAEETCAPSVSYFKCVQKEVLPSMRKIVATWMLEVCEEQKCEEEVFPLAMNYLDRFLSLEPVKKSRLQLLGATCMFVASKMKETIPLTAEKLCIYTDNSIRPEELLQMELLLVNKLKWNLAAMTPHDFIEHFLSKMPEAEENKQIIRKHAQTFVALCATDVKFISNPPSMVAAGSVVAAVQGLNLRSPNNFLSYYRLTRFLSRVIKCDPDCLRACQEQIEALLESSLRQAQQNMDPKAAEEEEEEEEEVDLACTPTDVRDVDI

Row | SMILES | IC50 (PC-3 Prostate [1]) | degree of toxicity HeLa Cervix (HeLa Cervix [2]) | degree of toxicity U-937 Histiocytic lymphoma (monocytes) [3] | degree of toxicity MCF-7 Breast (MCF-7 Breast [4]) | IC50 [5] | degree of toxicity PC-3 Prostate (PC-3 Prostate [6]) | IC50 (H460 Lung [7]) | degree of toxicity H460 Lung (H460 Lung [8]) | IC50 (HeLa Cervix [9]) | IC50 (MCF-7 Breast [10]) | IC50 (MDAMB-231 Breast [11]) | degree of toxicity MDAMB-231 Breast (MDAMB-231 Breast [12]) | IC50 (human Cdk-4/D1) | Ratio of IC50 Cdk2/E:Cdk4/D1 (human Cdk-4/D1) | IC50 (human Cdk-2/E) | melting point
1 | CN1CC[C@H](c2c(O)cc(O)c3c(=O)cc(-c4ccccc4Cl)oc23)[C@H](O)C1 (relative stereo) [Flavopiridol, cis-{2-(2-Chloro-phenyl)-5,7-dihydroxy-8-(3-hydroxy-1-methyl-piperidin-4-yl)-chromen-4-one hydrochloride}, reference compound] | 0.05 to 0.1 µM | +++ (above 70% toxic) | ++ (50-70% toxic) | + (30-50% toxic) | 0.1 µM | ++ (50-70% toxic) | 0.05 µM | + (30-50% toxic) | 0.1 to 0.5 µM | 0.5 µM | 0.1 µM | ++ (50-70% toxic) | – | – | – | –
2 | COc1ccc(Br)c(-c2cc(=O)c3c(O)cc(O)c([C@@H]4CCN(C)[C@H]4CO)c3o2)c1 (single isomer, unassigned) [Example 36 (Compound A), (+)-trans-2-(2-Bromo-5-methoxy-phenyl)-5,7-dihydroxy-8-(2-hydroxymethyl-1-methyl-pyrrolidin-3-yl)-chromen-4-one] | – | – | – | – | – | – | – | – | – | – | – | – | 0.08 µM | 75.0 | 6 µM | –
3 | CN1CC[C@@H](c2c(O)cc(O)c3c(=O)cc(-c4c(F)cccc4F)oc23)[C@@H]1CO (single isomer, unassigned) [Example 80, (+)-trans-2-(2,6-Difluoro-phenyl)-5,7-dihydroxy-8-(2-hydroxymethyl-1-methyl-pyrrolidin-3-yl)-chromen-4-one] | – | – | – | – | – | – | – | – | – | – | – | – | 0.28 µM | 31.2 | 8.75 µM | 242 to 244 °C
4 | CN1CC[C@@H](c2c(O)cc(O)c3c(=O)cc(-c4ccccc4Cl)oc23)[C@@H]1CO [Example 14A, (+)-trans-2-(2-Chloro-phenyl)-5,7-dihydroxy-8-(2-hydroxymethyl-1-methyl-pyrrolidin-3-yl)-chromen-4-one] | 0.5 to 1 µM | ++ (50-70% toxic) | + (30-50% toxic) | NT (not toxic ≦30%) | 0.1 to 1 µM | ++ (50-70% toxic) | 5 to 10 µM | NT (not toxic ≦30%) | 0.1 to 0.5 µM | 0.5 to 1 µM | 0.5 to 1 µM | NT (not toxic ≦30%) | – | – | – | –
5 | CN1CC[C@@H](c2c(O)cc(O)c3c(=O)cc(-c4ccccc4Br)oc23)[C@@H]1CO [Example 17, (+)-trans-2-(2-Bromo-phenyl)-5,7-dihydroxy-8-(2-hydroxymethyl-1-methyl-pyrrolidin-3-yl)-chromen-4-one] | 1 to 10 µM | + (30-50% toxic) | + (30-50% toxic) | + (30-50% toxic) | 0.1 to 1 µM | NT (not toxic ≦30%) | > 10 µM | NT (not toxic ≦30%) | 0.1 to 1 µM | 0.5 to 1 µM | 0.1 µM | NT (not toxic ≦30%) | – | – | – | 235 to 237 °C
